Assays:
[1] = test system: Staphylococcus aureus mprF; experiment: Radial diffusion assay; type: cell-based
Protocol: Sweat collection and processing. Sweat was collected on paper tissues (Kimwipes, Kimberly-Clark, Ga.) from healthy volunteers after exercise. After collection, 20 ml of sweat was centrifuged at 2000 g for 15 min. at 4° C., filtered through a […] (Acrodisc syringe filter, 0.2 mm, low protein binding, Fisher scientific, Tustin, Calif.), and frozen at −80° C. For some experiments sweat was lyophilized to dryness, then suspended in 400 μl of distilled water (DW: cell culture grade, endotoxin free, GibcoBRL, Grand island, NY). For analysis of LL37 processing by sweat, 1.6 nmol of LL-37 synthetic peptide was incubated in 50 ml of sweat for 0, 1, 6, 24 hrs at 37° C. or 4° C. In some experiments proteinase inhibitors including; mixed protease inhibitor cocktail (1tab/10 ml, Roche, Indianapolis, Ind.), […] Bestatin, 10 mg/ml E-64, 10 mg/ml Aprotinin, (Sigma, St Louis, Mo.); 100 mM AEBSF, 100 mM Neutrophil elastase inhibitor (NEI) or 100 mM leukocyte elastase inhibitor (LEI) (Calbiochem, San Diego, Calif.) were added during incubation. After incubation, 2 ml was assayed by radial diffusion assay to determine antibacterial activity. For analysis by HPLC 32 nmoles LL-37 was incubated in 100u1. To control for potential contamination from paper tissues, parallel processing was done on tissues soaked in phosphate-buffered saline (PBS:137 mM NaCl, 2.7 mM KCL, 4.3 mM Na2HPO4-H2O, 1.4 mM KH2PO4, pH 7.4). No antimicrobial activity was detectable in these preparations. Protein concentrations were evaluated by BCA assay (protein assay reagent, Pierce, Rockford, Ill.) or Bradford protein assay (Bio-Rad, Hercules, Calif.) according to manufacture's instructions. Human tissue and blood collection was approved by the UCSD Human Research Protection Program.
Antimicrobial assays. For screening of antimicrobial activity of HPLC fractions, radial diffusion assay was used. Lyophilized HPLC fractions were dissolved in DW (GibcoBRL, Grand Island, N.Y.), and tested against Staphylococcus aureus mprF. Thin plates (1 mm) of 1% agarose in 0.5% tryptone containing approximately 1×10^6 cells/ml of S. aureus mprF were used. 1 mm wells were punched in the plates and […] of samples dissolved in tissue culture grade sterile water were loaded in each well.

[2] = test system: wild-type S. aureus (clinical isolate); experiment: Radial diffusion assay; type: cell-based
[3] = test system: enteroinvasive E. coli 029; experiment: Radial diffusion assay; type: cell-based
[4] = test system: C. albicans; experiment: Liquid assay, minimum fungicide concentration; type: cell-based, Candida albicans
Protocol: Action against the C. albicans was determined in Dixon medium (0.6% Peptone, 4% Malt Extract, 1% Glucose, 0.1% Ox Bile, 1% Tween-80) in sterile 96-well microtiter plates (Corning Inc., Corning, N.Y.) at a final volume of 50 ml. […] Microtiter plates were incubated at 37° C. for 24 h with peptides, then plated on Dixon agar to determine the MFC (minimum fungicide concentration).

[5] = test system: Group A Streptococcus (NZ131)
Protocol: Solution killing was done in 10% TSB in 10 mM PB (TSB=30 gm/L Tryptic Soy Broth, Sigma, St Louis Mo.; 20×PB=27.6 g/L NaH2PO4-H2O, 53.65 g/L Na2HPO4-7H2O, pH 7.4). Bacteria in log-phase growth were suspended to 1×10^6 cells/ml, peptide added and incubated at 37° C. for 2 hr. Bacteria were then plated on TSB agar (TSB, Bactoagar 13 g/L, Becton Dickinson, Sparks Md.) for direct colony count and determination of CFU.
Activity against Group A Streptococcus (NZ131) was done only in solution assay as described.

[6] = test system: cathelicidin; experiment: qPCR of cathelicidin mRNA in cultured keratinocytes; type: cell-based, human
Protocol: Cell culture and stimuli. Human keratinocytes were grown in serum-free EpiLife® cell culture media (Cascade Biologics; Portland, Oreg.) containing 0.06 mM Ca2+ and 1× EpiLife® defined growth supplement (EDGS) at 37° C. under standard tissue culture conditions. Stock cultures were maintained for up to five passages in this media with the addition of 50 U/mL penicillin and 50 μg/mL streptomycin. HaCaT keratinocytes were cultured in DMEM (Sigma, St. Louis, Mo.) with 10% FCS. Cells at 50-70% confluence were stimulated in fresh medium after preincubation with 1,25(OH)2 vitamin D3 (1,25D3; 0.1-100 nM, 4-24 h; Sigma). Alternatively, NHEK were stimulated in the presence of 1,25D3 (0.1-100 nM). Stimuli included TLR2,6 ligands Malp-2 (0.001-0.5 μg/ml; Alexis Biochemicals, Carlsbad, Calif.), FSL-1 (1-2 μg/ml, Invivogen, San Diego, Calif.) and zymosan (50 μg/ml; Invivogen), as well as flagellin (50 ng/ml; Alexis), LPS (1 μg/ml; Sigma), lipoteichoic acid (LTA; 10 μg/ml; Sigma), 19 kDA lipopeptide (10 μg/ml, a kind gift from S. Krutzik, Division of Dermatology, UCLA), CpG DNA (10 μg/ml; Sigma), Ca2+ (1.7 mM), LPS (1 μg/ml; Sigma), TNFα (20 ng/ml; Chemicon Temecula, Calif.) and TGFβ1 (0.1-1 μg/ml; R&D Systems, Minneapolis, Minn.). A TLR2 blocking antibody (αTLR2; clone TL2.1, 5 μg/ml, eBioscience, San Diego, Calif.) was utilized to investigate the role of TLR2 signaling. Furthermore, keratinocytes were pretreated with a vitamin D receptor antagonist (VDR-antagonist ZK159222 Schering AG; 10^-7M) or the CYP inhibitor itraconazole (ITRA; 10^-7M) before stimulation with TGFβ in the presence of 25OH vitamin D3 (25D3, 10 nM, Sigma).
Real-time RT-PCR (qPCR). RNA was extracted from cells, epidermal constructs or tissue using Trizol® and 1 μg RNA was reverse transcribed using iScript® (BioRad, Hercules, Calif.). Expression of cathelicidin and GAPDH was analysed by real-time RT-PCR. Predeveloped Taqman® assay probes (ABI, Foster City, Calif.) were used for the analyses of the expression of CYP24A1 (24-hydroxylase), CYP27B1 (1α-hydroxylase), CD14, CD36, TLR1, TLR2, TLR4, TLR6 and murine CD14. All analyses were performed in triplicate from 2-5 independent experiments in an ABI Prism® 7000 Sequence Detection System. Fold induction relative to the vehicle treated control in in vitro experiments was calculated using the comparative Ct method, where ΔΔCt is ΔCt(stimulant)-ΔCt(vehicle), ΔCt is Ct(gene)-Ct(GAPDH) and Ct is the cycle at which an arbitrary detection threshold is crossed. For quantification of transcript abundance in tissue samples target gene expression was normalized to GAPDH and compared to non-treated or non-injured skin.

[7] = test system: CYP27B1; experiment: qPCR of CYP27B1 mRNA in cultured keratinocytes; type: cell-based, human; conditions: 24 hours, TGF 1 μg/ml, TNFα 20 ng/ml, TLR2 ligand Malp-2
Protocol: (§1) Cell culture and stimuli. Human keratinocytes were grown in serum-free EpiLife® cell culture media (Cascade Biologics; Portland, Oreg.) containing 0.06 mM Ca2+ and 1× EpiLife® defined growth supplement (EDGS) at 37° C. under standard tissue culture conditions. Stock cultures were maintained for up to five passages in this media with the addition of 50 U/mL penicillin and 50 μg/mL streptomycin. HaCaT keratinocytes were cultured in DMEM (Sigma, St. Louis, Mo.) with 10% FCS. Cells at 50-70% confluence were stimulated in fresh medium after preincubation with 1,25(OH)2 vitamin D3 (1,25D3; 0.1-100 nM, 4-24 h; Sigma). Alternatively, NHEK were stimulated in the presence of 1,25D3 (0.1-100 nM). […]
(§2) Real-time RT-PCR (qPCR). […] Expression of cathelicidin and GAPDH was analysed by real-time RT-PCR. […] Fold induction relative to the vehicle treated control in in vitro experiments was calculated using the comparative Ct method, where ΔΔCt is ΔCt(stimulant)-ΔCt(vehicle), ΔCt is Ct(gene)-Ct(GAPDH) and Ct is the cycle at which an arbitrary detection threshold is crossed. For quantification of transcript abundance in tissue samples target gene expression was normalized to GAPDH and compared to non-treated or non-injured skin.

[8] = test system: IL-8; experiment: qPCR of IL-8 transcript in cultured keratinocytes; type: cell-based, human; conditions: Malp-2 (0.1 μg ml^−1) only
Protocol: as §1, §2

[9] = test system: cathelicidin; experiment: Cathelicidin peptide immunostaining in organotypic epidermal constructs; type: cell-based, human
Source text: Organotypic culture. Epiderm™ human skin-like tissue constructs were obtained from MatTek (Ashland, Mass.) and cultured according to manufacturer's instructions. […] Skin constructs were cut after stimulation and transferred to Trizol® (Invitrogen, Carlsbad, Calif.) for RNA extraction or immediately frozen in Tissue-Tek® (Sakura, Torrance, Calif.) for immunostaining.
Immunostaining. After fixation in 2% PFA and subsequent washings in PBS, sections from skin tissue or epidermal constructs were blocked in 3% BSA in PBS for 30 min at RT and stained with anti-cathelicidin LL-37 primary antibody or preimmune serum. After washings in PBS, slides from epidermal constructs were re-probed with a FITC labeled goat anti-chicken antibody. Nuclei were detected with DAPI. After subsequent washings with PBS slides, were mounted in ProLong Anti-Fade reagent (Molecular Probes, Eugene, Oreg.) and evaluated with an Olympus BX41 microscope (Olympus, Melville, N.Y.). Paraffin embedded formalin fixed tissue sections were rehydrated in a series of toluene, ethanol, and PBS. Endogenous peroxidase activity was quenched by 30 min incubation in 0.3% H2O2 in water, and sections microwaved for 4 min in antigen retrieval solution (0.01M citric acid, 0.05M

[10] = test system: cathelicidin promoter; experiment: Cathelicidin (CAMP) promoter luciferase reporter in HaCat keratinocytes; type: cell-based, human
Source text: Promoter analysis and site directed mutagenesis. […]. Primers were designed to introduce an NheI restriction site at the 5″end and an XhoI restriction site at the 3″end of the amplicon. The amplification product was cloned into the TOPO vector (Invitrogen) and transformed into E. coli TOP10 OneShot competent cells (Invitrogen). After DNA purification using the WizardPLus, SV Miniprep purification system (Promega, Madison, Wis.) the construct was digested with NheI and XhoI and then subcloned into the promoterless pGL3-basic firefly luciferase vector (Promega). […]. The resulting plasmid lacking the VDRE binding site cloned in the pGL3-basic vector was termed pGL-3 1500-VDRE. All resulting constructs were confirmed by sequencing. For transfection HaCat cells were seeded in 24 well plates (BD Biosciences) and used for transfection at 50 to 70% confluence. Cells were transfected with the indicated CAMP reporter plasmids and 0.1 μg of an internal-control Renilla luciferase expression plasmid (pRL-TK; Promega, Madison, Wis.) by using 1.5 μl of transfection reagent Fugene 6 (Roche) according to the manufacturer's instructions. […] Firefly luciferase activity from the CAMP pGL3 reporter vectors and Renilla luciferase activity were measured by the Dual Luciferase Assay system (Promega) in a luminometer (Optocomp I, MGM Instruments, Hamden, Conn.). […]

[11] = test system: acetylated histone H4; experiment: Histone H4 acetylation in keratinocytes (immunofluorescence, Western blot); type: cell-based, human; conditions: NHEK stimulated with butyrate or TLR ligand
Protocol: Panel a; Immunofluorescence staining of acetylated histone H4 protein in NHEK treated with HDACi in the presence or absence of 1,25D3. […] Panel b: Western blot of acetylated histone 4 from keratinocytes treated with the HDACi butyrate or TLR agonists. […] Bar=30 μM.
The abundance of acetylated histone was directly measured to confirm the inhibitory effects of butyrate and TSA on HDACs. […] To determine if changes in histone acetylation occur upon stimulation of keratinocytes with TLR ligands NHEK were stimulated with different TLR ligands and histone acetylation was assessed.

[12] = test system: Staphylococcus aureus; experiment: Bacterial growth inhibition (turbidity OD600) with or without carbonate; type: cell-based
[13] = test system: E. coli; experiment: Bacterial growth inhibition with or without NaHCO3; type: cell-based
[14] = test system: Group B Strep (GBS); experiment: Bacterial growth inhibition with or without NaHCO3; type: cell-based; conditions: 16 uM CRAMP without NaHCO3
[15] = test system: Salmonella; experiment: Bacterial growth inhibition with or without NaHCO3; type: cell-based; conditions: 16 uM CRAMP without NaHCO3
[16] = test system: antigen presentation; experiment: Antigen presentation in vitro; type: cell-based
[17] = 16 uM CRAMP without 50 mM NaHCO3

With “SSLLEKGLDGAKKAVGGLGKLGKDAVEDLESVGKGAVHDVKDVLDSV [DCD]” the “Radial Diffusion Assay, minimal inhibitory concentration (MIC), S. aureus mprF (head printed truncated: aureus cF)” value [1] was 4 μm, the “Radial Diffusion Assay, minimal inhibitory concentration (MIC), S. aureus (wt)” value [2] was 4 μm and the “Radial Diffusion Assay, minimal inhibitory concentration (MIC), E. coli (O29))” value [3] was 4 μm. The “Liquid Assay, minimal concentration required to kill C. albicans ATCC 14053 (head printed truncated: albicans CC 14053)” value [4] was 7 μm and the “Liquid Assay, minimal concentration required to kill GAS (NZ131)” value [5] was 4 μm.
For Malp-2, the cathelicidin transcript abundance ([6]; Malp-2 (0.1 μg ml^−1) alone) was “has no effect”, the “cathelicidin response to Malp-2” value ([6]; keratinocyte monolayers in high calcium (1.7 mM), no 1,25D3) was “did not respond to TLR2,6 activation by Malp-2” and the “cathelicidin expression in response to TLR ligand” value ([6]; keratinocytes pretreated with 1,25D3 0.1 nM 24 hours, then TLR ligand 24 hours) was “responded to Malp-2”. The CYP27B1 expression [7] was “could be induced”, the IL-8 expression [8] was “increased when stimulated with only Malp-2” and the “cathelicidin peptide response to Malp-2” value ([9]; Malp-2 0.1 μg/ml with 1,25D3 (100 nM)) was “did after its addition”. For the same substance, the “cathelicidin peptide response to Malp-2” value ([9]; Malp-2 0.1 μg/ml, absence of 1,25D3) was “did not respond to Malp-2 in the absence of 1,25D3”, the cathelicidin promoter activity ([10]; Malp-2 0.1 μg/ml in the presence of 1,25D3 (100 nM), construct including the VDRE) was “responsive to Malp-2” and the cathelicidin promoter activity ([10]; absence of 1,25D3 or the VDRE) was “no significant effect”. For the same substance, the “acetylation of histone H4” value [11] was “also increased histone acetylation”.
In the case of CRAMP, the susceptibility to peptide ([12]; 16 uM CRAMP with 50 mM NaHCO3) was “became susceptible”, the susceptibility to peptide [12, 17] was “resistant” and the “change of minimal inhibitory concentration (MIC) by NaHCO3” value ([12]; 20% TSB, 1 mM NaH2PO4, with or without 50 mM NaHCO3, pH 7.4) was “greatly reduced”. The susceptibility to peptide ([13]; 16 uM CRAMP with 50 mM NaHCO3) was “became susceptible”, the susceptibility to peptide [13, 17] was “resistant” and the susceptibility to peptide [14] was “susceptible even without NaHCO3”. For the same substance, the susceptibility to peptide [15] was “susceptible even without NaHCO3” and the “antigen presentation in vitro” value [16] was “inhibits antigen presentation in vitro”.

Source: US20100273748A1, “ANTIMICROBIAL THERAPY” (priority 2006, published 2010)
